Results taken from patent US8722376B2, “Firefly luciferase” (Olympus Corporation, priority 2011, dated 2014).

Biological target: T1, GL3 (luciferase derived from a known firefly) (Photinus pyralis, UniProt P08659, K549A/L550V/N119G/N50D/S548I)
T1 construct: measured as purified protein in a similar manner to SP1
Experiment: Km of GL3 luciferase (luminescence kinetic analysis)
Assay type: biochemical
Details: read-out: Km for ATP; 0.1 M Tris-HCl (pH 8.0), D-luciferin, MgSO4; measured in a similar manner

T1 sequence (P08659 whole entry N50D/N119G/S548I/K549A/L550V): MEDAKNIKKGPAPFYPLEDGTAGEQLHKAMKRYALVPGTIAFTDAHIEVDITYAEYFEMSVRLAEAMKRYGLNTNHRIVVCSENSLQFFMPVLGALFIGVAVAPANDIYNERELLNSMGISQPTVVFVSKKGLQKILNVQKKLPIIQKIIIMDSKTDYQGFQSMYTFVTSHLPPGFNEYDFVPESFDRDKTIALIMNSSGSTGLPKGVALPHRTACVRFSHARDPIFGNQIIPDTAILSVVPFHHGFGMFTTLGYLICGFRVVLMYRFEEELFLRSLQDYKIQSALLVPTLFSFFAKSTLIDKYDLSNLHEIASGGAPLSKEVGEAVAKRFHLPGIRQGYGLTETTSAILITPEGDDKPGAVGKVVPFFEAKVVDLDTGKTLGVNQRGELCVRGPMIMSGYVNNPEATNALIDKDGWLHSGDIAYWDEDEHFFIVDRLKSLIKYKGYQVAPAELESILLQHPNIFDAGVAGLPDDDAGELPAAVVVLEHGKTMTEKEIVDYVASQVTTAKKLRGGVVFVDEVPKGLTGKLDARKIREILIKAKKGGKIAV

Q: How did the Km turn out when `Nc1ncnc2c1ncn2[C@@H]1O[C@H](COP(=O)(O)OP(=O)(O)OP(=O)(O)O)[C@@H](O)[C@H]1O` [ATP] was run?
A: Its Km is 71.3 µM.
